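A five-concentration, 48-hour dose response in 96-well plates underlies each endpoint, interpolated linearly between surrounding concentrations. GI50: concentration for 50% inhibition of growth. TGI marks complete inhibition of growth.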
What was measured:
Test in all cases: NCI-60 cell line screen, 48 h
MDA-MB-231 breast = system: MDA-MB-231 breast
SK-OV-3 ovarian = system: SK-OV-3 ovarian
MALME-3M melanoma = system: MALME-3M melanoma
SNB-19 CNS = system: SNB-19 CNS
TK-10 renal = system: TK-10 renal
K-562 leukemia = system: K-562 leukemia
RPMI-8226 leukemia = system: RPMI-8226 leukemia
DU-145 prostate = system: DU-145 prostate
SNB-75 CNS = system: SNB-75 CNS
SK-MEL-28 melanoma = system: SK-MEL-28 melanoma
SF-268 CNS = system: SF-268 CNS
SF-539 CNS = system: SF-539 CNS
NCI/ADR-RES ovarian = system: NCI/ADR-RES ovarian
SK-MEL-2 melanoma = system: SK-MEL-2 melanoma
HS 578T breast = system: HS 578T breast
NCI-H460 lung = system: NCI-H460 lung
SW-620 colon = system: SW-620 colon
BT-549 breast = system: BT-549 breast
786-0 renal = system: 786-0 renal
COLO 205 colon = system: COLO 205 colon
MOLT-4 leukemia = system: MOLT-4 leukemia
OVCAR-5 ovarian = system: OVCAR-5 ovarian
OVCAR-3 ovarian = system: OVCAR-3 ovarian
SF-295 CNS = system: SF-295 CNS
SN12C renal = system: SN12C renal
CCRF-CEM leukemia = system: CCRF-CEM leukemia
M14 melanoma = system: M14 melanoma
HOP-62 NSCLC = system: HOP-62 NSCLC
HCT-116 colon = system: HCT-116 colon
LOX IMVI melanoma = system: LOX IMVI melanoma
A549 NSCLC = system: A549 NSCLC
HT29 colon = system: HT29 colon
EKVX NSCLC = system: EKVX NSCLC
NCI-H23 lung = system: NCI-H23 lung
RXF 393 renal = system: RXF 393 renal
HCT-15 colon = system: HCT-15 colon
HCC-2998 colon = system: HCC-2998 colon
NCI-H226 lung = system: NCI-H226 lung
ACHN renal = system: ACHN renal
OVCAR-8 ovarian = system: OVCAR-8 ovarian
OVCAR-4 ovarian = system: OVCAR-4 ovarian
KM12 colon = system: KM12 colon
A498 renal = system: A498 renal
HOP-92 NSCLC = system: HOP-92 NSCLC
NCI-H522 lung = system: NCI-H522 lung
PC-3 prostate = system: PC-3 prostate
IGROV1 ovarian = system: IGROV1 ovarian
MCF7 breast = system: MCF7 breast
UACC-62 melanoma = system: UACC-62 melanoma
MDA-MB-435 = system: MDA-MB-435
UO-31 renal = system: UO-31 renal
HL-60(TB) leukemia = system: HL-60(TB) leukemia
SK-MEL-5 melanoma = system: SK-MEL-5 melanoma
CAKI-1 renal = system: CAKI-1 renal
U251 CNS = system: U251 CNS
T-47D breast = system: T-47D breast
UACC-257 melanoma = system: UACC-257 melanoma

Q: Which results are given for `OCC1OC(n2ccc3c(NO)ncnc32)C(O)C1O` (stereo unspecified)?
A: GI50 (MDA-MB-231 breast): 233 nM; GI50 (SK-OV-3 ovarian): 120 nM; TGI (SK-OV-3 ovarian): 5380 nM; GI50 (MALME-3M melanoma): 117 nM; TGI (MALME-3M melanoma): 451 nM; GI50 (SNB-19 CNS): 263 nM; GI50 (TK-10 renal): 152 nM; TGI (TK-10 renal): 1160 nM; GI50 (K-562 leukemia): 201 nM; TGI (K-562 leukemia): 4530 nM; GI50 (RPMI-8226 leukemia): 138 nM; TGI (RPMI-8226 leukemia): 504 nM; GI50 (DU-145 prostate): 111 nM; TGI (DU-145 prostate): 702 nM; GI50 (SNB-75 CNS): 172 nM; TGI (SNB-75 CNS): 1820 nM; GI50 (SK-MEL-28 melanoma): 231 nM; TGI (SK-MEL-28 melanoma): 873 nM; GI50 (SF-268 CNS): 233 nM; TGI (SF-268 CNS): 2810 nM; GI50 (SF-539 CNS): 288 nM; TGI (SF-539 CNS): 1290 nM; GI50 (NCI/ADR-RES ovarian): 238 nM; TGI (NCI/ADR-RES ovarian): 1640 nM; GI50 (SK-MEL-2 melanoma): 155 nM; TGI (SK-MEL-2 melanoma): 429 nM; GI50 (HS 578T breast): 332 nM; TGI (HS 578T breast): > 24100 nM; GI50 (NCI-H460 lung): 44 nM; TGI (NCI-H460 lung): 4450 nM; GI50 (SW-620 colon): 89.5 nM; TGI (SW-620 colon): 3230 nM; GI50 (BT-549 breast): 193 nM; TGI (BT-549 breast): 764 nM; GI50 (786-0 renal): 239 nM; TGI (786-0 renal): 1100 nM; GI50 (COLO 205 colon): 114 nM; TGI (COLO 205 colon): 617 nM; GI50 (MOLT-4 leukemia): 153 nM; TGI (MOLT-4 leukemia): 477 nM; GI50 (OVCAR-5 ovarian): 247 nM; TGI (OVCAR-5 ovarian): 6330 nM; GI50 (OVCAR-3 ovarian): 249 nM; TGI (OVCAR-3 ovarian): 884 nM; GI50 (SF-295 CNS): 144 nM; TGI (SF-295 CNS): 599 nM; GI50 (SN12C renal): 212 nM; TGI (SN12C renal): 1610 nM; GI50 (CCRF-CEM leukemia): 159 nM; TGI (CCRF-CEM leukemia): 692 nM; GI50 (M14 melanoma): 77 nM; TGI (M14 melanoma): 578 nM; GI50 (HOP-62 NSCLC): 219 nM; TGI (HOP-62 NSCLC): 2510 nM; GI50 (HCT-116 colon): 29.6 nM; TGI (HCT-116 colon): 1030 nM; GI50 (LOX IMVI melanoma): 66.5 nM; TGI (LOX IMVI melanoma): 1270 nM; GI50 (A549 NSCLC): 87 nM; TGI (A549 NSCLC): 3580 nM; GI50 (HT29 colon): 130 nM; TGI (HT29 colon): 940 nM; GI50 (EKVX NSCLC): 241 nM; TGI (EKVX NSCLC): 994 nM; GI50 (NCI-H23 lung): 214 nM; TGI (NCI-H23 lung): 1170 nM; GI50 (RXF 393 renal): 163 nM; TGI (RXF 393 renal): 1140 nM; GI50 (HCT-15 colon): 118 nM; TGI (HCT-15 colon): 1520 nM; GI50 (HCC-2998 colon): 250 nM; TGI (HCC-2998 colon): 1000 nM; GI50 (NCI-H226 lung): 251 nM; GI50 (ACHN renal): 39.1 nM; TGI (ACHN renal): 3170 nM; GI50 (OVCAR-8 ovarian): 184 nM; TGI (OVCAR-8 ovarian): 1940 nM; GI50 (OVCAR-4 ovarian): 124 nM; TGI (OVCAR-4 ovarian): 1300 nM; GI50 (KM12 colon): 234 nM; TGI (KM12 colon): 1120 nM; GI50 (A498 renal): 152 nM; TGI (A498 renal): 794 nM; GI50 (HOP-92 NSCLC): 154 nM; TGI (HOP-92 NSCLC): 608 nM; GI50 (NCI-H522 lung): 188 nM; TGI (NCI-H522 lung): 718 nM; GI50 (PC-3 prostate): 239 nM; TGI (PC-3 prostate): 1140 nM; GI50 (IGROV1 ovarian): 88 nM; TGI (IGROV1 ovarian): 1170 nM; GI50 (MCF7 breast): 130 nM; TGI (MCF7 breast): 1680 nM; GI50 (UACC-62 melanoma): 128 nM; TGI (UACC-62 melanoma): 326 nM; GI50 (MDA-MB-435): 198 nM; TGI (MDA-MB-435): 632 nM; GI50 (UO-31 renal): 53.6 nM; TGI (UO-31 renal): 502 nM; GI50 (HL-60(TB) leukemia): 214 nM; TGI (HL-60(TB) leukemia): 638 nM; GI50 (SK-MEL-5 melanoma): 171 nM; TGI (SK-MEL-5 melanoma): 325 nM; GI50 (CAKI-1 renal): 47.2 nM; TGI (CAKI-1 renal): 403 nM; GI50 (U251 CNS): 168 nM; TGI (U251 CNS): > 20200 nM; GI50 (T-47D breast): 169 nM; TGI (T-47D breast): 1960 nM; GI50 (UACC-257 melanoma): 232 nM; TGI (UACC-257 melanoma): 866 nM
